Experimental data taken from patent US9518065B2, “IRAK inhibitors and uses thereof” (NIMBUS IRIS, INC., priority 2013, dated 2016).
Where two headings read alike, the source gives them in different places.

Experiments:
[1] = molecular target: T1, IRAK4 (Homo sapiens, UniProt Q9NWZ3); assay: IRAK-4 activity inhibition assay (Caliper); type: biochemical; details: 3.5 nM IRAK4, 37 μM ATP, 1.5 μM Peptide 8
T1 construct: purchased CARNA Bioscience 09-145
T1 sequence (Q9NWZ3 1-460): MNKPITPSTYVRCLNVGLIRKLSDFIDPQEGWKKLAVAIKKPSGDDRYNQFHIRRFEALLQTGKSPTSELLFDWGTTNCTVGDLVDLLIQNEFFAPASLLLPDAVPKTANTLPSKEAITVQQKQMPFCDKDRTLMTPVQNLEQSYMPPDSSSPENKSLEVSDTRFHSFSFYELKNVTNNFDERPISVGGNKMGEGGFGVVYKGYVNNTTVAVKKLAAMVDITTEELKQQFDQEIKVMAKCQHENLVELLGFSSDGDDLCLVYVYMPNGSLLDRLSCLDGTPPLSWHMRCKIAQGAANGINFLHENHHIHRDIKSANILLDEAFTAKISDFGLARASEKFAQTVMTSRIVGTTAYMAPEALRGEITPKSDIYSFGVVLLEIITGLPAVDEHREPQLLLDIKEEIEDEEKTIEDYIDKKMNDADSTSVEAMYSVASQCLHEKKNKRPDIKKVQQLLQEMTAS
Outline: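 Caliper mobility-shift assay: 3.5 nM IRAK4 preincubated 10 min with compound (10-point series, duplicates), then 1.5 μM peptide 8 and 37 μM ATP added in HEPES pH 7.5 with Mg2+/Mn2+ and DTT, 40 min at 28°C before EDTA stop. Percent inhibition from substrate conversion relative to DMSO and no-enzyme controls.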

[2] = tested on: TNFα and IL8 production in THP-1 cells; assay: LPS induced cytokine (TNFα and IL8) production assay in THP-1 cells; type: cell-based; details: Homo sapiens, 300 ng/mL LPS
Experimental: Provided compounds were also assayed in an LPS (Lipopolysacharide) or R848 (TLR-7 agonist) induced cytokine (TNFα and IL8) production assay in THP-1 cells, human white blood cells (hWBC), and whole blood. The exemplary protocol for this assay in THP-1 cells was as follows below.
THP-1 cells from ATCC (TIB-202) were cultured in RPMI Medium 1640 (Invitrogen, Cat No. A10491-01), 10% fetal bovine serum (Invitrogen, Cat No. 10099141, Lot No. 8172882) containing 100 U/mL Penicillin, 100 μg/mL streptomycin (Invitrogen, Cat No. 15140-122), and 50 uM 2-Mercaptoethanol (Invitrogen, Cat No. 21985023). LPS-EK ultra pure (Invivogen, Cat No. tlrl-peklps) was used to induce IL8 and TNFα production, that was detected in the cell culture supernatant by IL8 HTRF kit (Cisbio, Cat No. 62IL8PEB) and TNFα HTRF kit (Cisbio, Cat No. 62TNFPEB), as per manufacturer instructions. Cells were cultured in 96 well assay plates at 100,000 cells per well, and compounds diluted in final 0.3% DMSO were pre-incubated with cells for 1 hour prior to stimulation with 300 ng/mL LPS. Cytokine production in cell supernatant was measured at 5 hours for TNFα and IL8 production, and for 16 hours for IL8 production and assessment of cell viability.
The compound numbers correspond to the compound numbers in Table 1. […] “NA” stands for “not assayed.”

[3] = 5 hours, read-out: TNFα production IC50
[4] = 16 hours, read-out: IL8 (16 h) production IC50

Structure (SMILES) | IC50 [1] [nM] | IC50 [2, 3] [nM] | IC50 [2, 4] [nM]
CC(O)c1nc2c(N[C@H]3CC[C@H](N4CCOCC4)CC3)nc(Nc3cnn(C)c3)nc2s1 (stereo partly drawn) [Compound I-35, 1-(5-((1-methyl-1H-pyrazol-4-yl)amino)-7-(((1r,4r)-4-morpholino-cyclohexyl)amino)thiazolo[5,4-d]pyrimidin-2-yl)ethan-1-ol] | ≤ 1000 | ≥ 500 | ≥ 500
CCn1cc(Nc2nc(N[C@H]3CC[C@H](N4CCOCC4)CC3)c3nc(C)sc3n2)cn1 [Compound I-36, N5-(1-ethyl-1H-pyrazol-4-yl)-2-methyl-N7-((1r,4r)-4-morpholinocyclohexyl)thiazolo[5,4-d]pyrimidine-5,7-diamine] | ≤ 1000 | 250 to 500 | ≤ 250
Cn1cc(Nc2nc(N[C@H]3CC[C@H](N4CCOCC4)CC3)c3nc(CO)sc3n2)cn1 [Compound I-37, (5-((1-methyl-1H-pyrazol-4-yl)amino)-7-(((1r,4r)-4-morpholino-cyclohexyl)amino)thiazolo[5,4-d]pyrimidin-2-yl)methanol] | ≤ 1000 | ≥ 500 | ≥ 500
Cc1nc2c(N[C@H]3CC[C@H](N4CCOCC4)CC3)nc(Nc3cnn(CCCS(C)(=O)=O)c3)nc2s1 [Compound I-38, 2-methyl-N5-(1-(3-(methylsulfonyl)propyl)-1H-pyrazol-4-yl)-N7-((1r,4r)-4-morpholinocyclohexyl)thiazolo[5,4-d]pyrimidine-5,7-diamine] | ≤ 1000 | ≥ 500 | 250 to 500
Cc1nc2c(N[C@H]3CC[C@H](N4CCC5(CC4)CC5)CC3)nc(Nc3cnn(C)c3)nc2s1 [Compound I-39, N7-((1r,4r)-4-(6-azaspiro[2.5]octan-6-yl)cyclohexyl)-2-methyl-N5-(1-methyl-1H-pyrazol-4-yl)thiazolo[5,4-d]pyrimidine-5,7-diamine] | ≤ 1000 | 250 to 500 | 250 to 500
Cc1nc2c(N[C@H]3CC[C@H](N4CCOCC4)CC3)nc(Nc3cnn(CCS(C)(=O)=O)c3)nc2s1 [Compound I-40, 2-methyl-N5-(1-(2-(methylsulfonyl)ethyl)-1H-pyrazol-4-yl)-N7-((1r,4r)-4-morpholinocyclohexyl)thiazolo[5,4-d]pyrimidine-5,7-diamine] | ≤ 1000 | ≤ 250 | 250 to 500
Cc1nc2c(N[C@H]3CC[C@H](N4CCC5(CC4)COC5)CC3)nc(Nc3cnn(C)c3)nc2s1 [Compound I-42, N7-((1r,4r)-4-(2-oxa-7-azaspiro[3.5]nonan-7-yl)cyclohexyl)-2-methyl-N5-(1-methyl-1H-pyrazol-4-yl)thiazolo[5,4-d]pyrimidine-5,7-diamine] | ≤ 1000 | 250 to 500 | 250 to 500
